Where a name gives a salt, the structure may show the parent alone.
Molecular target: human histamine 3 receptor (hH3R) (Homo sapiens (Human), UniProt Q9Y5N1)
Experiment: Binding affinity of human histamine 3 receptor (hH3R), [3H] labeled N-α-methylhistamine displacement
Settings: hH3R-overexpressed cell membrane, [3H] N-α-methylhistamine
Procedure: 10 μL of the prepared compound solution was allocated in each well of a 96-well plate, and then 10 μL of 200 μM (R)(−)-α-methylhistamine (RaMH) diluted with analysis buffer and 1% of DMSO were transferred to each well to calculate non-specific binding and total binding degree. 15 μg of human histamine 3 receptor-overexpressed cell membrane (PerkinElmer) was diluted with 180 μL of analysis buffer solution (50 mM tris-HCl pH 7.4, 5 mM MgCl2), and that was transferred to each well. [^3H] labeled Na-methylhistamine (PerkinElmer) was diluted into […], 10 μL of that was added to each well, and then it was kept in a 27° C. incubator for 30 minutes. After the reaction, 200 μL of the mixture was transferred to a glass fiber plate in which 0.5% polyethylene amine was presoaked, and then non-binding [^3H] labeled Na-methylhistamine was removed in vacuum. After 5 times washing with 200 μL of washing buffer solution (50 mM tris-HCl, pH 7.4), the plate was dried in a 37° C. oven for 18 hours. 100 μL of betascint cocktail solution was added to each well, and after 1 hour CPM of [^3H] labeled N-α-methylhistamine was measured by using Wallac beta-counter TriLux. The binding affinity (IC50) of the human histamine 3 receptor for the present invention was analyzed by an Excel program, and the results of analysis are shown in Table 2.

Chain of human histamine 3 receptor (hH3R) (Q9Y5N1 whole entry): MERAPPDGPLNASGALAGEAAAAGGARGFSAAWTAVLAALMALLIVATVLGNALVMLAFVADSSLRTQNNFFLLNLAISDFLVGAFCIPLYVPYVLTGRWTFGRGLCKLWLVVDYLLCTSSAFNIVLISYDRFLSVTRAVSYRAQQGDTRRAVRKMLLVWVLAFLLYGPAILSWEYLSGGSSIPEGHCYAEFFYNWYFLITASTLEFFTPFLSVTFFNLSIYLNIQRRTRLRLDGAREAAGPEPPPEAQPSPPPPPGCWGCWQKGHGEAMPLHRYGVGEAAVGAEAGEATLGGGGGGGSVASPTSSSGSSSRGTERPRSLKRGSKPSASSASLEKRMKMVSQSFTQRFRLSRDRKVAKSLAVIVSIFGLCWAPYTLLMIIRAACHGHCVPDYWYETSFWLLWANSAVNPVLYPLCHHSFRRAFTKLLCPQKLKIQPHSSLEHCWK

| IC50 [µM] | SMILES |
| --- | --- |
| > 100 | Cc1cnc2c(c1)nc(N1CCN(C)CC1)c1nncn12 [Compound 1, 3-Methyl-6-(4-methylpiperazin-1-yl)pyrido[3,2-e][1,2,4]triazolo[4,3-a]pyrazine] |
| > 100 | CN1CCN(c2nc3ncccc3n3cnnc23)CC1 [Compound 3, 4-(4-Methylpiperazin-1-yl)pyrido[2,3-e][1,2,4]triazolo[4,3-a]pyrazine] |
| > 100 | CN1CCN(c2nc3cc(Cl)cnc3n3cnnc23)CC1 [Compound 5, 3-Chloro-6-(4-methylpiperazin-1-yl)pyrido[3,2-e][1,2,4]triazolo[4,3-a]pyrazine] |
| > 100 | CN1CCN(c2nc3cccnc3n3cnnc23)CC1 [Compound 6, 6-(4-Methylpiperazin-1-yl)pyrido[3,2-e][1,2,4]triazolo[4,3-a]pyrazine] |
| > 100 | NC1CN(c2nc3ncc(Cl)cc3n3cnnc23)C1 [Compound 8, 1-(8-Chloropyrido[2,3-e][1,2,4]triazolo[4,3-a]pyrazin-4-yl)azetidin-3-amine] |
| > 100 | CN(C)[C@@H]1CCN(c2nc3ncc(Cl)cc3n3cnnc23)C1 [Compound 9, (R)-1-(8-chloropyrido[2,3-e][1,2,4]triazolo[4,3-a]pyrazin-4-yl)-N,N-dimethylpyrrolidin-3-amine] |
| > 100 | CN[C@@H]1CCN(c2nc3ncc(Cl)cc3n3cnnc23)C1 [Compound 10, (R)-1-(8-chloropyrido[2,3-e][1,2,4]triazolo[4,3-a]pyrazin-4-yl)-N-methylpyrrolidin-3-amine] |
| > 100 | CN[C@@H]1CCN(c2nc3cc(Cl)cnc3n3cnnc23)C1 [Compound 11, (R)-1-(3-chloropyrido[3,2-e][1,2,4]triazolo[4,3-a]pyrazin-6-yl)-N-methylpyrrolidin-3-amine] |
| > 100 | Cc1nnc2c(N3CCN(C)CC3)nc3ncc(Cl)cc3n12 [Compound 14, 8-Chloro-1-methyl-4-(4-methylpiperazin-1-yl)pyrido[2,3-e][1,2,4]triazolo[4,3-a]pyrazine] |
| > 100 | Cc1nnc2c(N3CCNCC3)nc3ncc(Cl)cc3n12 [Compound 15, 8-Chloro-1-methyl-4-(piperazin-1-yl)pyrido[2,3-e][1,2,4]triazolo[4,3-a]pyrazine] |
| > 100 | CC1CN(c2nc3ncc(Cl)cc3n3cnnc23)CC(C)N1C (stereo not drawn) [Compound 22, 8-Chloro-4-(3,4,5-trimethylpiperazin-1-yl)pyrido[2,3-e][1,2,4]triazolo[4,3-a]pyrazine] |
| > 100 | N[C@@H]1CCN(c2nc3ncc(Cl)cc3n3cnnc23)C1 [Compound 30, (R)-1-(8-chloropyrido[2,3-e][1,2,4]triazolo[4,3-a]pyrazin-4-yl)pyrrolidin-3-amine] |
| > 100 | CNC1CN(c2nc3ncc(Cl)cc3c3nc(C)nn23)C1 [Compound 33, 1-(9-Chloro-2-methylpyrido[3,2-e][1,2,4]triazolo[1,5-c]pyrimidin-5-yl)-N-methylazetidin-3-amine] |
| > 100 | CNC1CN(c2nc3ncc(Cl)cc3c3ncnn23)C1 [Compound 36, 1-(9-Chloropyrido[3,2-e][1,2,4]triazolo[1,5-c]pyrimidin-5-yl)-N-methylazetidin-3-amine] |
| > 100 | Clc1cnc2nc(N3CCNCC3)n3ncnc3c2c1 [Compound 37, 9-Chloro-5-(piperazin-1-yl)pyrido[3,2-e][1,2,4]triazolo[1,5-c]pyrimidine] |
| > 100 | COCc1nc2c3cc(Cl)cnc3nc(N3CCN(C)CC3)n2n1 [Compound 40, 9-Chloro-2-(methoxymethyl)-5-(4-methylpiperazin-1-yl)pyrido[3,2-e][1,2,4]triazolo[1,5-c]pyrimidine] |
| > 100 | CCc1nc2c3cc(Cl)cnc3nc(N3CCN(C)CC3)n2n1 [Compound 41, 9-Chloro-2-ethyl-5-(4-methylpiperazin-1-yl)pyrido[3,2-e][1,2,4]triazolo[1,5-c]pyrimidine] |
| > 100 | CNC1CN(c2nc3ncc(Cl)cc3c3cn(C)nc23)C1 [Compound 44, 1-(8-Chloro-2-methyl-2H-pyrazolo[3,4-c][1,8]naphthylidine-4-yl)-N-methylazetidin-3-amine] |

| IC50 [µM] | SMILES |
| --- | --- |
| > 100 | CCc1cnc2nc(N3CC(NC)C3)c3nncn3c2c1 [Compound 56, 1-(8-Ethylpyrido[2,3-e][1,2,4]triazolo[4,3-a]pyrazin-4-yl)-N-methylazetidin-3-amine] |
| > 100 | CNC1CN(c2nc3ncc(O)cc3n3cnnc23)C1 [Compound 57, 4-(3-(Methylamino)azetidin-1-yl)pyrido[2,3-e][1,2,4]triazolo[4,3-a]pyrazin-8-ol] |
| > 100 | COc1nc2nc(N3CCNCC3)c3nncn3c2cc1Cl [Compound 61, 8-Chloro-7-methoxy-4-(piperazin-1-yl)pyrido[2,3-e][1,2,4]triazolo[4,3-a]pyrazine] |
| > 100 | CC1(N)CN(c2nc3ncc(Br)cc3n3cnnc23)C1 [Compound 72, 1-(8-Bromopyrido[2,3-e][1,2,4]triazolo[4,3-a]pyrazin-4-yl)-3-methylazetidin-3-amine] |
| > 100 | CNC1(C)CN(c2nc3ncc(Br)cc3n3cnnc23)C1 [Compound 73, 1-(8-Bromopyrido[2,3-e][1,2,4]triazolo[4,3-a]pyrazin-4-yl)-N,3-dimethylazetidin-3-amine] |
| > 100 | Clc1cnc2nc(N3CCN(C4CC4)CC3)c3nncn3c2c1 [Compound 76, 8-Chloro-4-(4-cyclopropylpiperazin-1-yl)pyrido[2,3-e][1,2,4]triazolo[4,3-a]pyrazine] |
| > 100 | Clc1cnc2nc(N3CCCNCC3)c3nncn3c2c1 [Compound 79, 8-Chloro-4-(1,4-diazepan-1-yl)pyrido[2,3-e][1,2,4]triazolo[4,3-a]pyrazine] |
| > 100 | CN[C@@H]1CCN(c2nc3ncc(Br)cc3n3cnnc23)C1 [Compound 81, (R)-1-(8-bromopyrido[2,3-e][1,2,4]triazolo[4,3-a]pyrazin-4-yl)-N-methylpyrrolidin-3-amine] |
| > 100 | CN(C)C1CN(c2nc3ncc(Cl)cc3n3cnnc23)C1 [Compound 84, 1-(8-Chloropyrido[2,3-e][1,2,4]triazolo[4,3-a]pyrazin-4-yl)-N,N-dimethylazetidin-3-amine] |
| > 100 | CN(C)C1CN(c2nc3ncc(Br)cc3n3cnnc23)C1 [Compound 85, 1-(8-Bromopyrido[2,3-e][1,2,4]triazolo[4,3-a]pyrazin-4-yl)-N,N-dimethylazetidin-3-amine] |
| > 100 | OCCNc1nc2ncc(Cl)cc2n2cnnc12 [Compound 87, 2-((8-Chloropyrido[2,3-e][1,2,4]triazolo[4,3-a]pyrazin-4-yl)amino)ethanol] |
| > 100 | Cc1nc2c(N3CC(N(C)C(=O)OC(C)(C)C)C3)nc3ncc(Cl)cc3c2o1 [Compound 90, tert-Butyl (1-(8-chloro-2-methyloxazolo[4,5-c][1,8]naphthylidine-4-yl)azetidin-3-yl)(methyl)carbamate] |
| 87 | CNC1CN(c2nc3ncc(Cl)cc3n3nc(C)nc23)C1 [Compound 97, 1-(8-Chloro-2-methylpyrido[2,3-e][1,2,4]triazolo[1,5-a]pyrazin-4-yl)-N-methylazetidin-3-amine] |
| > 100 | CNC1CN(c2nc3nc(C)c(Br)cc3n3cnnc23)C1 [Compound 99, 1-(8-bromo-7-methylpyrido[2,3-e][1,2,4]triazolo[4,3-a]pyrazin-4-yl)-N-methylazetidin-3-amine] |
| > 100 | CNC1CN(c2nc3nc(O)c(Cl)cc3n3cnnc23)C1 [Compound 101, 8-chloro-4-(3-(methylamino)azetidin-1-yl)pyrido[2,3-e][1,2,4]triazolo[4,3-a]pyrazin-7-ol HCl salt] |
| > 100 | CNC1CN(C2=Nc3ncc(Br)cc3N3C[C@H](C)N=C23)C1 [Compound 105, (S)-1-(8-bromo-2-methyl-1,2-dihydroimidazo[1,2-a]pyrido[2,3-e]pyrazin-4-yl)-N-methylazetidin-3-amine] |
| > 100 | CNC1CN(C2=Nc3ncc(Br)cc3N3C[C@@H](C)N=C23)C1 [Compound 106, (R)-1-(8-bromo-2-methyl-1,2-dihydroimidazo[1,2-a]pyrido[2,3-e]pyrazin-4-yl)-N-methylazetidin-3-amine] |

| SMILES | IC50 [µM] |
| --- | --- |
| CN1CC2CN(c3nc4ncc(Cl)cc4n4cnnc34)CC2C1 (stereo not drawn) [Compound 70, 8-Chloro-4-(5-methylhexahydropyrrolo[3,4-c]pyrrole-2(1H)-yl)pyrido[2,3-e][1,2,4]triazolo[4,3-a]pyrazine] | > 100 |
| CN1CC2CN(c3nc4ncc(Br)cc4n4cnnc34)CC2C1 (stereo not drawn) [Compound 71, 8-Bromo-4-(5-methylhexahydropyrrolo[3,4-c]pyrrole-2(1H)-yl)pyrido[2,3-e][1,2,4]triazolo[4,3-a]pyrazine] | > 100 |
| Clc1cnc2nc(N3CC4CCCNC4C3)c3nncn3c2c1 (stereo not drawn) [Compound 82, 8-Chloro-4-(hexahydro-1H-pyrrolo[3,4-b]pyridin-6(2H)-yl)pyrido[2,3-e][1,2,4]triazolo[4,3-a]pyrazine] | > 100 |
| CN1CCCC2CN(c3nc4ncc(Cl)cc4n4cnnc34)CC21 (stereo not drawn) [Compound 83, 8-Chloro-4-(1-methylhexahydro-1H-pyrrolo[3,4-b]pyridin-6(2H)-yl)pyrido[2,3-e][1,2,4]triazolo[4,3-a]pyrazine] | > 100 |

From patent publication US9586959B2, “Substituted tricyclic heterocycles as histamine 4 receptor inhibitors” (C&C RESEARCH LABORATORIES, priority 2011, dated 2017)
